Legend:
clone ES5.13 = experiment: Cytokine measurement in culture supernatants of clone ES5.13; format: cell-based, human; details: for interference on Pen G-induced IL2 secretion: added together with 0.25 mg/ml of Pen G; for cytokine response to the derivative alone: without Pen G
Procedure: (§1) For cytokine measurement, 10^5 T cells and 5 x 10^4 autologous, irradiated EBV-B cells were mixed in 200 µl of complete RPMI-FCS medium containing appropriate Ag concentration. After overnight incubation, supernatants were collected and tested for the concentration of IL2, IFNγ and IL4. IL2 was quantified on a IL2-dependent CTLL line. IFNγ was measured by a sandwich ELISA as described (12). IL-4 was measured using the Duo-Set ELISA kit provided by Genzyme Diagnostics, Cambridge, MA. Eventually, cells were kept in culture for another 24 h and cellular proliferation was measured by thymidine uptake as described above.
In a first set of experiments we studied the effect of the Pen V and Amp derivatives on the T cell phenotype induced by Pen G on two hapten-specific CD4^+ cell clones.

[1] = test system: tetanus toxoid-specific T cell clone 1ES4; format: cell-based, human
clone BAM25 = experiment: Cytokine measurement in culture supernatants of clone BAM25; format: cell-based, human; details: for cytokine response to the derivative alone: without Pen G
[2] = test system: PBMC from donors allergic to β-lactams; experiment: Flow cytometric analysis of intracellular IFNγ and IL4 production in Pen G-stimulated PBMC cultures; format: cell-based, human; details: restimulated with PMA and ionomycin, intracellular staining
Procedure: (§2) Cells at a concentration of 3 x 10^5/w were stimulated with 3-fold dilutions of Pen G from 3 mg/ml to 0.1 µg/ml. After 5 days incubation at 37°C in 5% CO2, the proliferative response was determined, in one of the plates, as the ^3H-thymidine incorporation after 16 h incubation with […] = 37 kBq ^3H-thymidine (Dupont, Boston, MA). Cells were harvested on GF/A-filters (Dunn Labortechnik GmbH, Asbach, Germany) and the incorporation was measured in an automatic β-counter (Inotech, Asbach, Germany). The second plate was further expanded in IL2-containing medium for 4 days. Cells were then pooled for any given Pen G concentration, washed and rested in the absence of IL2. After another 4 days, cells were harvested and analysed for TCR expression by cell surface staining and IL4/IFNγ production by intracellular staining.
Intracellular staining for cytokines was performed following the protocol described by Murphy et al. (12), with few modifications. […] Samples were resuspended in PBS/BSA and analyzed on a FACScan flow cytometer (Becton Dickinson & Co.). […] Results were analyzed using Cellquest software. T cells were detected by standard surface staining using the PE-conjugated anti human TCRαβ antibody (Clone BMA03, Immunotech, Marseille, France). […]

[3] = test system: PBMC from donors allergic to β-lactams; experiment: Proliferative response of primary PBMC cultures to Pen G (3H-thymidine incorporation); format: cell-based, human; details: 5 days incubation
Procedure: as §2
Patients BAM, CAS and ES participating to this study developed allergic reactions after treatment with β-lactam antibiotics and their clinical data are summarized in Table I. At the time of diagnosis they all presented different symptoms after treatment with β-lactams as well as positive LTT in vitro (Table I; ref. 2, 4 and data not shown). […] After 5 days of incubation, the proliferative response was measured in one of the cultures by thymidine incorporation. […] The intensity of the response was dose-dependent, with maximal proliferation at 0.3 mg/ml of Pen G.

[4] = test system: Pen G-specific T cell clones; experiment: Proliferation and IL4/IFNγ secretion of a panel of T cell clones at different Pen G doses; format: cell-based, human
Procedure: T cell clones were generated from Pen G specific T cell lines. Freshly isolated PBMC were stimulated with 1, 0.3, 0.1 mg/ml of Pen G at a density of 2 x 10^5 cells/well in a final volume of 200 µl of complete RPMI containing 5 % HS in 96-well flat bottom culture plates. After 5 days at 37°C and 5 % CO2, 25 U/ml of IL2 was added to the wells. After another 4 days the cultures were pooled, rested for 3 days in the absence of IL2 and subjected to a second round of restimulation using irradiated autologous PBMC as APC and the same dose of Pen G given during the first restimulation. After 3 days the different cultures were again expanded in IL2 containing medium and then cloned by limiting dilution. T cell blasts were seeded at 0.3 cells/well in Terasaki plates (Nunc, Roskilde, Denmark) in the presence of 1 µg/ml PHA and 10^4 irradiated allogeneic PBMC in complete RPMI medium containing 5 % HS and 250 U/ml IL-2. The T cell clones obtained were maintained in culture by periodic stimulation in the presence of irradiated allogeneic PBMC, PHA and IL2.
as §1
In order to evaluate the role of Pen G doses in inducing functional differentiation of established T lymphocytes, a panel of independent Pen G-specific T cell clones was prepared. PBMC from donors two were subjected to two rounds of stimulation, in vitro, with Pen G at concentrations of 1, 0.3 and 0.1 mg/ml in three independent T cell lines. After expansion in IL2-containing medium, each line was independently cloned by limiting dilution. A total of 18 Pen G-specific T cell clones were obtained from donor two and 24 from donor one. The hapten-specific T cell phenotype was induced stimulating each T cell clone with 3-fold dilution of Pen G, from 3 mg/ml to 0.03 mg/ml concentration, in the presence of irradiated autologous EBV-B cells. After 24 h incubation, supernatants were harvested and processed for cytokine measurement, while cells were kept in culture for another 24 h and T cell proliferation was measured by thymidine uptake. We then examined IL4 and IFNγ secretion induced in the presence of the highest and lowest Pen G dose able to trigger cellular proliferation, considering SI values ≥ 2.0 as positive response.

mouse Th1 cells = details: through specific inhibition of p38 MAP kinases; cited from earlier work
[5] = added together with 0.25 mg/ml of Pen G, 24 h
[6] = high concentration, together with 0.25 mg/ml of Pen G
[7] = 0.25 mg/ml of Pen G only, 24 h incubation

Structure (SMILES): CC1(C)S[C@@H]2[C@H](NC(=O)[C@H](N)c3ccccc3)C(=O)N2[C@H]1C(=O)O [Amp, Ampicillin]
- interference on Pen G-induced IL2 secretion (clone ES5.13): no interference
- cytokine response to the derivative alone (clone ES5.13): None of them responded
- effect on cytokine secretion [1]: no effect
- effect on the Pen G-induced cytokine pattern (clone BAM25; [5]): did not affect
- effect on IFNγ secretion (clone BAM25; [6]): slight reduction
- cytokine response to the derivative alone (clone BAM25): None of them responded

Structure (SMILES): CC1(C)S[C@@H]2[C@H](NC(=O)Cc3ccccc3)C(=O)N2[C@H]1C(=O)O [Pen G, Penicillin G]
- IL2 (100% value) (clone ES5.13; [7]): 40.3 SI
- IL4 (100% value) (clone ES5.13; [7]): 5414 pg/mL
- cells expanded upon in vitro stimulation [2]: mainly IL4^+ and IL4^+IFNγ^+ cells are expanded
- IFNγ (100% value) (clone BAM25; [7]): 6637 pg/mL
- IL2 (100% value) (clone BAM25; [7]): 80.5 SI of CTLL cells
- IL4 (100% value) (clone BAM25; [7]): 5788 pg/mL
- cytokine pattern (clone BAM25; Pen G 1 mg/ml, behaved as a Th2 clone): secreting IL4 but not IFNγ
- Pen G concentration of maximal proliferation [3]: 0.3 mg/mL
- lowest doses capable of triggering cellular proliferation ([4]; clones from donor one, SI ≥ 2.0 as positive response): ≥ 0.3 mg/mL
- dose at which clones could secrete IL4 ([4]; clones from donor one, only at the highest dose tested): 3 mg/mL
- clones in which lower concentration induced higher level of IFNγ secretion ([4]; clones from donor two): 14 of the 18
- clones able to shift from type 0 to type 1 responses ([4]; clones from donor two, number of clones): 5
- lowest dose capable of triggering cellular proliferation ([4]; clones from donor two, SI ≥ 2.0 as positive response): 0.03 mg/mL
- clones able to shift their phenotype from type 0 to type 1 ([4]; clones isolated from donor two): 35%

Structure (SMILES): CC1(C)S[C@@H]2[C@H](NC(=O)COc3ccccc3)C(=O)N2[C@H]1C(=O)O [Pen V, Penicillin V]
- interference on Pen G-induced IL2 secretion (clone ES5.13): no interference
- effect on IL4 production (clone ES5.13; [6]): only a marginal reduction
- cytokine response to the derivative alone (clone ES5.13): None of them responded
- concentration at which IFNγ secretion is completely abrogated [1]: ≥ 0.1 mg/mL
- effect on IL2 production [1]: unaffected
- concentrations at which IFNγ production is completely abrogated (clone BAM25; [5]): ≥ 0.1 mg/mL
- effect on IL4 secretion (clone BAM25; [5]): without affecting IL4 secretion
- reduction of the amount of IL2 (clone BAM25; [5]): about 50%
- cytokine response to the derivative alone (clone BAM25): None of them responded

Structure (SMILES): C[S+]([O-])c1ccc(-c2nc(-c3ccncc3)c(-c3ccc(F)cc3)[nH]2)cc1 (stereo not drawn) [SB203580]
- effect on IFNγ (mouse Th1 cells): selectively induces IFNγ downmodulation

— patent publication EP1013664A1, “Antigenic determinants for drug-specific T lymphocytes from drug-allergic patients” (Max-Planck-Gesellschaft zur Förderung der Wissenschaften …, priority 1998, dated 2000)
